Measured values: US20250059208A1, “KRAS MODULATING COMPOUNDS” (priority 2023, published 2025)
Read-outs that look alike come from different tables or passages of the source.

Columns and labels:
[1] = molecular target: GDP-loaded KRAS-G12C (Homo sapiens, UniProt P01116, G12C); test: KRAS (GDP) biochemical TR-FRET probe displacement assay, G12C; format: binding; details: 2 hours at room temperature
Description: (§1) • Compounds were tested for binding to GDP-loaded wild-type KRAS (WT), KRAS-G12C, KRAS-G12D, and KRAS-G12V in a 384-well assay format using a TR-FRET probe displacement assay in buffer consisting of 50 mM Hepes (pH 7.4), 150 mM NaCl. 5 mM MgCl2 and 0.005% Tween-20. 0.03 nM KRAS was used in this assay with 0.02 nM Eu-streptavidin and 12 nM Cy-5 labelled probe. Compounds were serially diluted (1:3) in DMSO. The LabCyte ECHO Acoustic dispenser was used to pre-spot the assay plates (384-well Non-Binding Surface plates, Corning, Catalog #3824) with 50 nL of compound. 5 μL of 2× enzyme concentration was added to the pre-spotted plates and incubated for 30 minutes before adding 5 μL of 2× concentration of Eu-streptavidin and Cy-5 labelled probe (10 μL final reaction volume). The plates were incubated at room temperature for 2 hours before measuring TR-FRET ratio (665 nm/615 nm) on the Envision multimode plate reader. The ratios were normalized to a positive (saturating concentration of known inhibitor) and negative (DMSO) control and plotted against the log of compound concentration. […]

[2] = molecular target: GDP-loaded KRAS-G12D (Homo sapiens, UniProt P01116, G12D); test: KRAS (GDP) biochemical TR-FRET probe displacement assay, G12D; format: binding; details: 2 hours at room temperature
Description: as §1

[3] = molecular target: GDP-loaded wild-type KRAS (WT) (Homo sapiens, UniProt P01116); test: KRAS (GDP) biochemical TR-FRET probe displacement assay, WT; format: binding; details: 2 hours at room temperature
Description: as §1

[4] = molecular target: GDP-loaded KRAS-G12V (Homo sapiens, UniProt P01116, G12V); test: KRAS (GDP) biochemical TR-FRET probe displacement assay, G12V; format: binding; details: 2 hours at room temperature
Description: as §1

[5] = tested on: cellular pERK in ASPC-1 (KRAS G12D) cell-line; test: Cell based pERK assay, ASPC-1; details: ASPC-1 (KRAS G12D) cells, 2 hours compound incubation, HTRF Phospho-ERK1/2
Description: (§2) Compounds were tested in a 384-well assay format for their ability to inhibit cellular pERK in Kuramochi (WT KRAS), MIA-PaCa-2 (KRAS-G12C), ASPC-1 (KRAS G12D), and NCI-H441 (KRAS-G12V) cell-lines. Compounds were serially diluted (1:3) in DMSO. On day −1, 80 μL of cells were plated per well in the 384 well tissue-culture plates (Greiner: Cat #781080) to seed 5000 cells per wells of AsPC-1 or 7500 cells of MIA-PaCa-2, NCI-H441, and Kuramochi cell lines in RPMI (Corning: Cat #10-040-CM) with 10% fetal bovine serum (FBS) (HyClone: Cat #SH30071-03) and IX penicillin-streptomycin-glutamate (PSG) (Corning: Cat #30-009-C1) for […] and Kuramochi cell lines and DMEM (Corning: Cat #15-018-CM) with 10% FBS and 1×PSG for MIA-PaCa-2 cell line. The plates were then incubated overnight at 37° C. and 5% CO2. On day 0, 400 nL of compound/well was added into the cell plates and mixed 5 times by pipetting using a Beckmann Biomek FX. The cell plates were then incubated for 2 hours at 37° C. and 5% CO2. HTRF Advanced Phospho-ERK1/2 (THR202/TYR204) Detection Kits (PerkinElmer: Cat #64AERPEG) were used to prepare the lysis and detection solution according to manufacturer protocol. Following the 2 hour incubation, 70 μL of medium was aspirated from the plates and 10 μL of lysis and detection solution was added to the plates using a Biotek EL406 washer and dispenser. Plates were sealed and stored overnight at room temperature. HTRF ratio (665 nm/615 nm) was read by Envision multimode reader (PerkinElmer) the next day. The TR-FRET ratios were normalized to a positive (saturating concentration of known inhibitor) and negative (DMSO) control and plotted against the log of compound concentration.

[6] = tested on: cellular pERK in Kuramochi (WT KRAS) cell-line; test: Cell based pERK assay, Kuramochi; details: Kuramochi (WT KRAS) cells, 2 hours compound incubation, HTRF Phospho-ERK1/2
Description: as §2

[7] = tested on: cellular pERK in NCI-H441 (KRAS-G12V) cell-line; test: Cell based pERK assay, NCI-H441; details: Homo sapiens; NCI-H441 (KRAS-G12V) cells, 2 hours compound incubation, HTRF Phospho-ERK1/2
Description: as §2

[8] = tested on: cellular pERK in MIA-PaCa-2 (KRAS-G12C) cell-line; test: Cell based pERK assay, MIA-PaCa-2; details: Homo sapiens; MIA-PaCa-2 (KRAS-G12C) cells, 2 hours compound incubation, HTRF Phospho-ERK1/2; read-out: MIAPaCa2 pERK EC50
Description: as §2

Chain of GDP-loaded KRAS-G12C (P01116 1-188 isoform P01116-2 G12C): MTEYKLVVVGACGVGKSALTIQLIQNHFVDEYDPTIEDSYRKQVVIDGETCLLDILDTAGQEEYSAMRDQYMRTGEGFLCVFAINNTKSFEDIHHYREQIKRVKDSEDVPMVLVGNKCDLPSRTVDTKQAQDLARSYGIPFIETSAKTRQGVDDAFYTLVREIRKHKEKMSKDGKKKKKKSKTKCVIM
Chain of GDP-loaded KRAS-G12D (P01116 1-188 isoform P01116-2 G12D): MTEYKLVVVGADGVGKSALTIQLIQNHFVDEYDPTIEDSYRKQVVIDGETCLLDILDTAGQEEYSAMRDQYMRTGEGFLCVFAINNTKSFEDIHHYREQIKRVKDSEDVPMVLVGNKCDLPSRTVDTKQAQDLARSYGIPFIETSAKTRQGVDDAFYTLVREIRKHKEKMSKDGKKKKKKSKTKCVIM
Chain of GDP-loaded wild-type KRAS (WT) (P01116 1-188 isoform P01116-2): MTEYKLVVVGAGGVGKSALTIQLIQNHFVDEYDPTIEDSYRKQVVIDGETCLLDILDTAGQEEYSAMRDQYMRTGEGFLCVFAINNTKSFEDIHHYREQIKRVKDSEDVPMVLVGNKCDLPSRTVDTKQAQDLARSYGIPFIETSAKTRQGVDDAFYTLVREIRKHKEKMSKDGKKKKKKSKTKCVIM
Chain of GDP-loaded KRAS-G12V (P01116 1-188 isoform P01116-2 G12V): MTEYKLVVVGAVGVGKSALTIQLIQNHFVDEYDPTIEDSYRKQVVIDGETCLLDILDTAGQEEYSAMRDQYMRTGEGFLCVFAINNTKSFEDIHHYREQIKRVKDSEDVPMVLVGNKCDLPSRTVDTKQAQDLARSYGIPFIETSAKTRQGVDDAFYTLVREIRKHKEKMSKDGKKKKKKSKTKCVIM

SMILES	IC50 [1]	IC50 [2]	IC50 [3]	IC50 [4]	EC50 ([5]; read-out: AsPC1 pERK EC50)	EC50 [6]	EC50 [7]	EC50 [8]	EC50 ([5]; Homo sapiens, ASPC1, 2 h)	EC50 ([6]; 2 h)
N#Cc1c(N)sc2c(F)ccc(-c3c(Cl)cc4c(N5CC6(F)CCC(F)(C5)N6)nc(OC[C@@]56CCCN5C[C@H](F)C6)nc4c3F)c12 (single isomer, unassigned) [Example 8-1]	1.03 nM	1.46 nM	0.13 nM	1 nM	25.3 nM	2.57 nM	–	–	–	–
N#Cc1c(N)sc2c(F)ccc(-c3c(Cl)cc4c(N5CC6(F)CCC(F)(C5)N6)nc(OC[C@@]56CCCN5C[C@H](F)C6)nc4c3F)c12 (single isomer, unassigned) [Example 8-2]	23.3 nM	43 nM	3.31 nM	50.1 nM	614 nM	79.8 nM	256 nM	65.4 nM	–	–
C#Cc1c(F)ccc2cc(O)cc(-c3c(F)cc4c(N5CC6(F)CCC(F)(C5)N6)nc(OC[C@@]56CCCN5C[C@H](F)C6)nc4c3F)c12 (single isomer, unassigned) [Example 9-1]	0.17 nM	0.32 nM	0.18 nM	0.19 nM	6.2 nM	4.25 nM	–	–	–	–
C#Cc1c(F)ccc2cc(O)cc(-c3c(F)cc4c(N5CC6(F)CCC(F)(C5)N6)nc(OC[C@@]56CCCN5C[C@H](F)C6)nc4c3F)c12 (single isomer, unassigned) [Example 9-2]	–	97.8 nM	66.3 nM	72.6 nM	> 1000 nM	> 1000 nM	–	–	–	–
C#Cc1c(F)ccc2cc(O)cc(-c3ncc4c(N5C[C@]6(F)CC[C@](F)(C5)N6)nc(OC[C@@]56CCCN5C[C@H](F)C6)nc4c3F)c12 [Example 1-1, 4-(4-((1R,5S)-1,5-difluoro-3,8-diazabicyclo[3.2.1]octan-3-yl)-8-fluoro-2-(((2R,7aS)-2-fluorotetrahydro-1H-pyrrolizin-7a(5H)-yl)methoxy)pyrido[4,3-d]pyrimidin-7-yl)-5-ethynyl-6-fluoronaphthalen-2-ol]	0.1 nM	0.14 nM	0.08 nM	0.11 nM	–	–	0.83 nM	0.16 nM	4.11 nM	1.19 nM
C#Cc1c(F)ccc2cccc(-c3ncc4c(N5CC6(F)CCC(F)(C5)N6)nc(OC[C@@]56CCCN5C[C@H](F)C6)nc4c3F)c12 [Example 1-2]	38 nM	≥ 100 nM	26.6 nM	84 nM	–	–	66 nM	32.2 nM	194 nM	11.9 nM
C#Cc1c(F)ccc2cc(O)cc(-c3ncc4c(N5C[C@]6(F)CC[C@](F)(C5)N6)nc(OCC56CCCN5CCC6)nc4c3F)c12 [Example 2-1, 4-(4-((1R,5S)-1,5-difluoro-3,8-diazabicyclo[3.2.1]octan-3-yl)-8-fluoro-2-((tetrahydro-1H-pyrrolizin-7a(5H)-yl)methoxy)pyrido[4,3-d]pyrimidin-7-yl)-5-ethynyl-6-fluoronaphthalen-2-ol]	–	–	–	–	–	–	17.9 nM	6.9 nM	71.1 nM	11.5 nM
C#Cc1c(F)ccc2cc(O)cc(-c3ncc4c(N5CC6(F)CCC(F)(C5)N6)nc(OC[C@@]56CCCN5[C@H](COc5cc(C(F)(F)F)ncn5)CC6)nc4c3F)c12 [Example 2-3]	0.4 nM	0.55 nM	0.29 nM	0.42 nM	–	–	2.07 nM	0.19 nM	2.15 nM	2.55 nM
C#Cc1c(F)ccc2cc(O)cc(-c3ncc4c(N5CC6(F)CCC(F)(C5)N6)nc(OC[C@@]56CCCN5[C@H](COc5cc(C(F)(F)F)cnn5)CC6)nc4c3F)c12 [Example 2-4]	0.27 nM	0.36 nM	0.21 nM	0.24 nM	–	–	9.86 nM	0.29 nM	14.9 nM	5.56 nM
C#Cc1c(F)c(F)cc2cc(O)cc(-c3c(F)cc4c(N5CC6(F)CCC(F)(C5)N6)nc(OCC56CCCN5CCC6)nc4c3F)c12 [Example 2-5]	0.15 nM	0.61 nM	0.29 nM	0.2 nM	–	–	6.29 nM	3.01 nM	61.7 nM	8.69 nM
C#Cc1c(F)ccc2cc(O)cc(-c3c(Cl)cc4c(N5CC6(F)CCC(F)(C5)N6)nc(OC[C@@]56CCCN5C[C@H](F)C6)nc4c3F)c12 [Example 2-6]	2.8 nM	25.8 nM	5.93 nM	9.86 nM	–	–	6.11 nM	1.75 nM	27.5 nM	5.13 nM
Cc1cc(-c2c(F)cc3c(N4CC5(F)CCC(F)(C4)N5)nc(OC[C@@]45CCCN4C[C@H](F)C5)nc3c2F)c2cccnc2c1N [Example 2-7]	> 100 nM	> 100 nM	> 100 nM	> 100 nM	–	–	> 1000 nM	> 1000 nM	> 1000 nM	> 1000 nM
C#Cc1c(F)ccc2cccc(-c3ncc4c(N5C[C@]6(F)CC[C@](F)(C5)N6)nc(OCC56CCCN5CCC6)nc4c3F)c12 [Example 3-1, 4-((1R,5S)-1,5-difluoro-3,8-diazabicyclo[3.2.1]octan-3-yl)-7-(8-ethynyl-7-fluoronaphthalen-1-yl)-8-fluoro-2-((tetrahydro-1H-pyrrolizin-7a(5H)-yl)methoxy)pyrido[4,3-d]pyrimidine]	–	–	–	–	–	–	117 nM	38.4 nM	368 nM	8.71 nM
CCc1c(F)ccc2cc(O)cc(-c3ncc4c(N5CC6(F)CCC(F)(C5)N6)nc(OC[C@@]56CCCN5C[C@H](F)C6)nc4c3F)c12 [Example 4-1, 4-(4-((1R,5S)-1,5-difluoro-3,8-diazabicyclo[3.2.1]octan-3-yl)-8-fluoro-2-(((2R,7aS)-2-fluorotetrahydro-1H-pyrrolizin-7a(5H)-yl)methoxy)pyridol[4,3-d]pyrimidin-7-yl)-5-ethyl-6-fluoronaphthalen-2-ol]	–	–	–	–	–	–	4.7 nM	2.22 nM	11.9 nM	1.35 nM
CCc1c(F)ccc2cccc(-c3ncc4c(N5CC6(F)CCC(F)(C5)N6)nc(OC[C@@]56CCCN5C[C@H](F)C6)nc4c3F)c12 [Example 4-2]	–	–	–	–	–	–	507 nM	301 nM	1030 nM	53.3 nM
Fc1ccc2nc(C(F)(F)F)c(-c3c(F)cc4c(N5CC6(F)CCC(F)(C5)N6)nc(OC[C@@]56CCCN5C[C@H](F)C6)nc4c3F)n2c1 [Example 6-3]	> 100 nM	> 100 nM	> 100 nM	> 100 nM	–	–	–	–	–	–
Cc1c(F)c(N)cc(-c2ncc3c(N4CC5(F)CCC(F)(C4)N5)nc(OC[C@@]45CCCN4C[C@H](F)C5)nc3c2F)c1C(F)(F)F [Example 6-4]	20.1 nM	> 100 nM	17.3 nM	21.6 nM	–	–	–	–	449 nM	11.3 nM
